Test results: the supplement of paper PMC10307832

Tests used:
Assay in all cases: relative viability (nuclei count vs DMSO), 5 days (fraction); higher = more cells survive
[1] = compound: C[C@@H](N)c1ccc(C(=O)Nc2ccnc3[nH]ccc23)cc1 + Nc1nc2[nH]cc(CCc3ccc(C(=O)N[C@@H](CCC(=O)O)C(=O)O)cc3)c2c(=O)[nH]1 [Pemetrexed] (partner 0.2 µM)
In short: (§1)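 Five library-drug doses in √10 steps were combined with a fixed anchor-drug dose, or a single drug was given alone, by pin tool to lung cancer cell lines in 1536-well plates the day after seeding. Nuclei were stained and counted after 5 days. Relative viability is the nuclei count in treated wells over that in vehicle wells, taken as the median of duplicate plates.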

[2] = compound: O[C@H]1CC[C@H](Nc2ncc3nc(Nc4c(F)cc(F)cc4F)n([C@H]4CCOC4)c3n2)CC1 [Tanzisertib] + Nc1ncn([C@H]2C[C@H](O)[C@@H](CO)O2)c(=O)n1 [Decitabine] (partner 2 µM)
In short: as §1

[3] = compound: C1CNCCC1C2=CC(=NN2)C3=CC=NC=C3 + COc1cc2c(Oc3ccc(NC(=O)C4(C(=O)Nc5ccc(F)cc5)CC4)cc3F)ccnc2cc1OCCCN1CCOCC1 [Foretinib] (partner 0.25 µM)
In short: as §1

[4] = compound: O[C@H]1CC[C@H](Nc2ncc3nc(Nc4c(F)cc(F)cc4F)n([C@H]4CCOC4)c3n2)CC1 [Tanzisertib] + Cc1cc(Nc2cc(N3CCN(C)CC3)nc(Sc3ccc(NC(=O)C4CC4)cc3)n2)n[nH]1 [Tozasertib] (partner 0.1 µM)
In short: as §1

Cell Line	relative viability ([1]; first compound 0.04 µM)	relative viability ([1]; first compound 0.1265 µM)	relative viability ([1]; first compound 0.4 µM)	relative viability ([1]; first compound 1.265 µM)	relative viability ([1]; first compound 4 µM)	relative viability ([2]; first compound 0.08 µM)	relative viability ([2]; first compound 0.253 µM)	relative viability ([2]; first compound 0.8 µM)	relative viability ([2]; first compound 2.53 µM)	relative viability ([2]; first compound 8 µM)	relative viability ([3]; first compound 0.08 µM)	relative viability ([3]; first compound 2.53 µM)	relative viability ([3]; first compound 8 µM)	relative viability ([4]; first compound 0.08 µM)	relative viability ([4]; first compound 0.253 µM)	relative viability ([4]; first compound 0.8 µM)	relative viability ([4]; first compound 2.53 µM)	relative viability ([4]; first compound 8 µM)	relative viability ([3]; first compound 0.8 µM)
NCI-H1755	0.433	0.527	0.448	0.425	0.471	0.737	0.701	0.705	0.754	0.726	0.968	0.908	0.897	0.58	0.618	0.561	0.582	0.533	–
NCI-H23	0.619	0.744	0.848	–	0.754	0.3	0.301	0.32	0.282	0.374	0.766	1.25	1.11	0.369	0.362	0.306	0.29	0.293	1.19
201T	0.316	0.297	0.382	0.29	0.314	0.862	0.902	0.853	0.857	0.85	1.08	1.3	1.03	0.989	0.923	0.943	0.866	0.875	1.21
NCI-H1734	0.405	0.419	0.385	0.362	0.39	0.492	0.492	0.399	0.52	0.441	0.81	0.992	0.836	0.267	0.282	0.254	0.251	0.236	0.919
NCI-H520	0.624	0.668	0.69	0.802	0.652	0.565	0.483	0.533	0.491	0.459	0.613	0.811	0.545	0.411	0.464	0.403	0.428	0.414	0.722
NCI-H1650	0.443	0.394	0.399	0.349	0.355	0.408	0.452	0.393	0.384	0.453	0.798	1.16	1.21	0.392	0.433	0.399	0.359	0.294	0.98
NCI-H1355	1.1	1.06	1.01	1.06	1.05	0.374	0.388	0.369	0.388	0.361	0.906	1.05	0.923	0.526	0.562	0.576	0.528	0.405	0.938
NCI-H1915	–	0.501	0.541	–	0.449	0.288	0.275	0.264	0.257	0.279	1.07	1.06	1.09	0.401	0.457	0.373	0.384	0.322	1.13
BEN	0.556	0.711	0.701	0.877	0.634	0.707	0.766	0.782	0.702	0.57	0.548	0.646	0.692	0.464	0.451	0.621	0.418	0.407	0.752
NCI-H3122	0.202	0.216	0.203	0.21	0.222	0.43	0.409	0.412	0.366	0.439	1.01	0.942	1.01	0.465	0.393	0.497	0.399	0.377	0.935
SK-MES-1	0.901	0.964	0.906	0.887	0.877	0.365	0.409	0.364	0.34	0.327	0.85	1.05	1	0.971	0.889	0.991	0.951	0.992	0.855
HOP-62	0.286	0.344	0.252	0.298	0.288	0.212	0.236	0.217	0.248	0.215	1.06	1.18	1.09	0.428	0.433	0.356	0.382	0.375	1.31
HCC-366	0.154	0.148	0.163	0.241	0.184	–	0.381	0.382	0.348	0.254	0.95	0.905	1.03	0.105	0.0977	0.114	0.0525	0.0508	0.946
NCI-H2347	0.41	0.424	0.452	0.388	0.403	0.634	0.657	0.701	0.635	0.648	1.21	0.805	1.25	0.569	–	0.664	0.682	0.365	0.742
LXF-289	0.861	0.909	0.948	0.929	0.79	0.419	0.379	0.387	0.416	0.39	0.978	0.989	0.918	0.236	0.165	0.149	0.17	0.147	1.03
NCI-H1793	1.02	0.978	0.94	–	1	0.533	0.48	0.509	0.51	0.453	0.619	0.72	0.654	0.289	0.287	0.303	0.246	0.223	0.659
LU99A	–	0.189	0.191	0.23	0.188	1.03	0.88	0.984	0.874	0.911	0.766	0.864	0.797	0.256	0.284	0.276	0.259	0.298	0.87
